19 compounds from ChEMBL document CHEMBL6103622 (J Med Chem, 2025) can be followed below.

As a reminder, the IC50 is the midpoint of a concentration-inhibition curve. High values mean a need for much substance, low ones inhibition by little substance.

The test system of experiment [1] is MC-38. The experiment is described as follows: Induction of apoptosis in mouse MC38 cells cocultured with condition medium of M2 macrophages assessed as early apoptotic cells at 100 nM by Annexin V/PI staining based flow cytometric analysis (reference value: 3.16 %). Format: functional. For orientation: Flow cytometry measures light scatter and fluorescence of single cells or particles in a stream.

Experiment [2] concerns MC-38. The experiment is described as follows: Induction of apoptosis in mouse MC38 cells cocultured with condition medium of M2 macrophages assessed as late apoptotic cells at 100 nM by Annexin V/PI staining based flow cytometric analysis (reference value: 1.66 %). Format: functional.
Experiment [3] has as its system MC-38. As to the kind of experiment: Induction of apoptosis in mouse MC38 cells assessed as early apoptotic cells at 100 nM by Annexin V/PI staining based flow cytometric analysis (reference value: 1.91 %). Format: functional.
Experiment [4] has as its system MC-38. The experiment is described as follows: Induction of apoptosis in mouse MC38 cells assessed as late apoptotic cells at 100 nM by Annexin V/PI staining based flow cytometric analysis (reference value: 0.85 %). Format: functional.
For experiment [5], the target named is Macrophage colony-stimulating factor 1 receptor (Homo sapiens, UniProt P07333). As to the kind of experiment: Inhibition of CSF-1R (unknown origin).
Experiment [6] concerns the target T1, Macrophage colony-stimulating factor 1 receptor (Mus musculus) (UniProt P09581).
T1 sequence (whole entry): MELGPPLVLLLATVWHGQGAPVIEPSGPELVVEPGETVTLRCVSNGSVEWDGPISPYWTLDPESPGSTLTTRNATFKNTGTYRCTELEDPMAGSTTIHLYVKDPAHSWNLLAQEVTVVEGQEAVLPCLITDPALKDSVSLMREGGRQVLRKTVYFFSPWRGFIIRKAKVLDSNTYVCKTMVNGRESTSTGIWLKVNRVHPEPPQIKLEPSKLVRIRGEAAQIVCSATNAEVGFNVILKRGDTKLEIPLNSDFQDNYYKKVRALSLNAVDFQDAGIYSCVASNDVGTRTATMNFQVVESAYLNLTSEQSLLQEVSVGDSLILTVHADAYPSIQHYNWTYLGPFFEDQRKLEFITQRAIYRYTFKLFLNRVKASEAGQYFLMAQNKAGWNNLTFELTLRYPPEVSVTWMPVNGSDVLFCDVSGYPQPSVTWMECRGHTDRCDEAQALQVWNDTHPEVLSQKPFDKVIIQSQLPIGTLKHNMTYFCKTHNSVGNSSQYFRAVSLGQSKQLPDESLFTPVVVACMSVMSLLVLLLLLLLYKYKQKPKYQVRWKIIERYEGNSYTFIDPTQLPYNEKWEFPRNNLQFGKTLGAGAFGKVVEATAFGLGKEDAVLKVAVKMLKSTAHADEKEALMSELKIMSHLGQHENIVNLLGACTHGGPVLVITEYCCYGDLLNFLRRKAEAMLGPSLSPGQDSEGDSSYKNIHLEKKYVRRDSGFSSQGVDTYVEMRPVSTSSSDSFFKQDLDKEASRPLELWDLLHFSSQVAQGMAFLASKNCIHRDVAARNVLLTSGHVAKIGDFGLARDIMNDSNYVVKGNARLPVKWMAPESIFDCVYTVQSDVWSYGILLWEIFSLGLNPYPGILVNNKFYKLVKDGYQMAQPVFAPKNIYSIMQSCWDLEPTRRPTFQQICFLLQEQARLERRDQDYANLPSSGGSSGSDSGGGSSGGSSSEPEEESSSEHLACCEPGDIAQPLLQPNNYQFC
As to the kind of experiment: Inhibition of CSF-1R signaling pathway activation in female C57BL/6 mouse BMDM cells assessed as reduction in CSF-1R phosphorylation at Tyr723 residue at 100 nM preincubated with compounds for 4 hrs followed by M-CSF stimulation and measured after 30 mins by Western blot analysis. Format: cell-based. The note with it: time 4.5 hrs. For orientation: In western blotting, separated proteins are transferred to a membrane and probed.

Experiment [7] concerns the target T1, Macrophage colony-stimulating factor 1 receptor (Mus musculus). The experiment is described as follows: Inhibition of CSF-1R signaling pathway activation in female C57BL/6 mouse BMDM cells assessed as reduction in AKT phosphorylation at Ser473 residue at 100 nM preincubated with compounds for 4 hrs followed by M-CSF stimulation and measured after 30 mins by Western blot analysis. Format: cell-based. The note with it: time 4.5 hrs.

Experiment [8] has the same target. The experiment is described as follows: Inhibition of CSF-1R signaling pathway activation in female C57BL/6 mouse BMDM cells assessed as reduction in CSF-1R phosphorylation at 100 nM preincubated with compounds for 4 hrs followed by M-CSF stimulation and measured after 30 mins by Western blot analysis. Format: cell-based. The note with it: time 4.5 hrs.

Activity calls are given as the source filed them. The calls are words filed in the database; no cut-off is given here. Bounds are passed on as bounds.

Sequence of Macrophage colony-stimulating factor 1 receptor (P07333 whole entry): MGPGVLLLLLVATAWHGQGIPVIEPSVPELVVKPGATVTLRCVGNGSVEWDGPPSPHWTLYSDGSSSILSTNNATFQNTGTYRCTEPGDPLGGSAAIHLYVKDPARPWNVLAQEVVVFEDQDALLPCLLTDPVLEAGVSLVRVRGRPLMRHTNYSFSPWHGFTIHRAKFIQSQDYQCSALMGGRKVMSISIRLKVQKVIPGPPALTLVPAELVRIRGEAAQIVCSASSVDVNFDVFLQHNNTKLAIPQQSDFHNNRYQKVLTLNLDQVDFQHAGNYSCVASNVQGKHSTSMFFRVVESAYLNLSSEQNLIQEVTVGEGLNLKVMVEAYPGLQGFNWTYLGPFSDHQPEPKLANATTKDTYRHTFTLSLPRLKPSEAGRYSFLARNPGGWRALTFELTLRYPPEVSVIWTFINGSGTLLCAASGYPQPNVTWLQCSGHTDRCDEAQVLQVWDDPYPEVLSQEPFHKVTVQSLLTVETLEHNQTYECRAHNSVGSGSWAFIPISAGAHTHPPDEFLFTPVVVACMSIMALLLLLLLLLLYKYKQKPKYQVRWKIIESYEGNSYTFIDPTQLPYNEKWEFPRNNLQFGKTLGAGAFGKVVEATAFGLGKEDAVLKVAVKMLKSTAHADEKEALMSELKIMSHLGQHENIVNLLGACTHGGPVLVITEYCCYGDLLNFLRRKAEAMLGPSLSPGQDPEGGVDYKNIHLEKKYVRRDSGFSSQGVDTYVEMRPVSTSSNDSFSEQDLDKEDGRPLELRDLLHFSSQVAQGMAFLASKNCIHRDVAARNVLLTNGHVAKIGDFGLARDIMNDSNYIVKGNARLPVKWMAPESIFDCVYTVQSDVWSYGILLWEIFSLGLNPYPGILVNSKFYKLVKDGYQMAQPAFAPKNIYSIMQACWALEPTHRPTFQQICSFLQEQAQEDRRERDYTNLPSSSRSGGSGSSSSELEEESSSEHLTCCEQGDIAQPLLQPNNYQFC

`FC(F)(F)c1ccc(CNc2ccc(Cc3c[nH]c4ncc(Cl)cc34)cn2)cn1` [PEXIDARTINIB]: the Activity with MC-38 [1] is recorded as 8.49%; with MC-38 [2], 2.25%; in the experiment with MC-38 [3], 1.8%; in the experiment with MC-38 [4], 0.83%. As for `Cc1nc(NC(=O)Nc2ccc(N3CCN(C)CC3)cc2)ccc1Oc1c[nH]c2ncc(Cl)cc12`, the IC50 in experiment [5] is 593 nM. On the same count and under the same terms, in the case of `Cc1nc(NC(=O)Nc2ccc(C(F)(F)F)nc2)ccc1Oc1c[nH]c2ncc(Cl)cc12` it was 152 nM; in that of `FC(F)(F)c1ccc(Nc2nc3ccc(Oc4c[nH]c5ncc(Cl)cc45)cc3s2)cc1`, 56.5 nM. Same read-out and setting: the result for `Cc1nc(NC(=O)Nc2cccc(C(F)(F)F)c2)ccc1Oc1c[nH]c2ncc(Cl)cc12` reads 372 nM; that for `Cc1nc(NC(=O)Nc2ccc(F)cc2)ccc1Oc1c[nH]c2ncc(Cl)cc12`, 85.6 nM. For the compound `Cc1nc(NC(=O)Nc2ccc(C(F)(F)F)cc2)ccc1Oc1c[nH]c2ncc(Cl)cc12`, the IC50 in experiment [5] is 48.9 nM. Consider `Cc1nc(NC(=O)Nc2cc(C(C)(C)C)no2)ccc1Oc1c[nH]c2ncc(Cl)cc12`, for which, in experiment [5], the IC50 was greater than 1000 nM.

In turn, `Cc1nc(NC(=O)Nc2cccc(Cl)c2)ccc1Oc1c[nH]c2ncc(Cl)cc12` displayed an IC50 in experiment [5] of 34.6 nM. Besides, the inhibition result in experiment [6] and in experiment [7] was “Active; Minimal Effect Observed” throughout. For `O[C@@H]1CCCC[C@H]1Nc1nc2ccc(Oc3c[nH]c4ncc(Cl)cc34)cc2s1`, in experiment [5], the IC50 was found to be 25.8 nM. Also, the inhibition result in experiment [8] was “Active; Weak Inhibitory Effect Observed”.

Take `O[C@@H]1CCCC[C@H]1Nc1nc2ccc(Oc3c[nH]c4ncc(F)cc34)cc2s1`: inhibition in experiment [5] was half-maximal at 30.6 nM (IC50). In addition, the inhibition result in experiment [8] is “Active; Weak Inhibitory Effect Observed”. Consider `COc1cc(NC(=O)Nc2ccc(Oc3c[nH]c4ncc(Cl)cc34)c(C)n2)cc(OC)c1OC`, for which, in experiment [5], the IC50 was 23.8 nM. Besides, the inhibition entry in experiment [6] and in experiment [7] was “Active; Minimal Effect Observed” throughout. On to `OC[C@H](Nc1nc2ccc(Oc3c[nH]c4ncc(Cl)cc34)cc2s1)C1CCCCC1`, for which, in experiment [5], the IC50 was greater than 1000 nM. For `O[C@@H]1CCCC[C@H]1Nc1nc2ccc(Cc3c[nH]c4ncc(Cl)cc34)cc2s1`, in experiment [5], half-maximal inhibition (IC50) was put at 49.4 nM. The inhibition entry in experiment [8] was “Active; Weak Inhibitory Effect Observed”. In turn, `O=C(Nc1ccc(Oc2c[nH]c3ncc(Cl)cc23)cc1)N[C@@H]1CCCC[C@H]1O` had an IC50 in experiment [5] of 43.5 nM. That is a double-digit nanomolar value.

Turning to `COc1cc(NC(=O)Nc2ccc(Oc3c[nH]c4ncc(Cl)cc34)c(C)n2)ccc1C(F)(F)F`, the IC50 in experiment [5] turned out to be 131 nM. Compared with the last compound, the IC50 is about 3-fold higher. Take `Cc1nc(NC(=O)Nc2ccc(C(C)(C)C)c(Cl)c2)ccc1Oc1c[nH]c2ncc(Cl)cc12`: the IC50 in experiment [5] is greater than 1000 nM. Still for that read-out and setting: the result for `Cc1nc(NC(=O)NCc2ccc(C(F)(F)F)nc2)ccc1Oc1c[nH]c2ncc(Cl)cc12` reads 406 nM. The same measure, in the same setting: the result for `O[C@@H]1CCCC[C@H]1Nc1nc2ccc(Oc3c[nH]c4nccc(F)c34)cc2s1` reads 41.4 nM.
